Test results as given in the NIST ThermoML archive (doi:10.1021/je1000796).
± gives the expanded uncertainty stated by the source.

How the values were obtained:
[1] = mn = molality of the nth substance listed, in mol/kg; conditions: 101 kPa, Liquid, m2 = 0; for viscosity: Capillary tube (Ostwald / Ubbelohde) method
[2] = 101 kPa, Liquid; for viscosity: Capillary tube (Ostwald / Ubbelohde) method

CO [methanol] + COC(=O)[C@H](c1ccccc1Cl)N1CCc2sccc2C1.O=S(=O)(O)O
[1]
Conditions | mass density [kg/m3] | viscosity [mPa·s]
278.15 K | 803 ± 0.9 | 0.7418 ± 0.0065
283.15 K | 798.9 ± 0.8 | 0.689 ± 0.0061
288.15 K | 795.2 ± 0.8 | 0.641 ± 0.0057
293.15 K | 792.1 ± 0.9 | 0.599 ± 0.0054
298.15 K | 787.9 ± 0.8 | 0.5585 ± 0.005
303.15 K | 783.7 ± 0.8 | 0.5199 ± 0.0047
308.15 K | 779.5 ± 0.9 | 0.4857 ± 0.0044
313.15 K | 775.2 ± 0.9 | 0.4559 ± 0.0042

CCO [ethanol]
[2]
Conditions | mass density [kg/m3] | viscosity [mPa·s]
278.15 K | 800.5 ± 1 | 1.629 ± 0.014
283.15 K | 797.8 ± 1 | 1.474 ± 0.013
288.15 K | 793.9 ± 0.8 | 1.333 ± 0.011
293.15 K | 790 ± 0.9 | 1.21 ± 0.01
298.15 K | 785.7 ± 0.9 | 1.099 ± 0.0094
303.15 K | 780.9 ± 0.9 | 0.9971 ± 0.0086
308.15 K | 778 ± 1.2 | 0.9083 ± 0.0079
313.15 K | 773.3 ± 1 | 0.828 ± 0.0072

CCO [ethanol] + COC(=O)[C@H](c1ccccc1Cl)N1CCc2sccc2C1.O=S(=O)(O)O
[1]
Conditions | mass density [kg/m3] | viscosity [mPa·s]
278.15 K | 800.5 ± 1 | 1.629 ± 0.014
283.15 K | 797.8 ± 1 | 1.474 ± 0.013
288.15 K | 793.9 ± 0.8 | 1.333 ± 0.011
293.15 K | 790 ± 0.9 | 1.21 ± 0.01
298.15 K | 785.7 ± 0.9 | 1.099 ± 0.0094
303.15 K | 780.9 ± 0.9 | 0.9971 ± 0.0086
308.15 K | 778 ± 1.2 | 0.9083 ± 0.0079
313.15 K | 773.3 ± 1 | 0.828 ± 0.0072

CO [methanol]
[2]
Conditions | mass density [kg/m3] | viscosity [mPa·s]
278.15 K | 803 ± 0.9 | 0.7418 ± 0.0065
283.15 K | 798.9 ± 0.8 | 0.689 ± 0.0061
288.15 K | 795.2 ± 0.8 | 0.641 ± 0.0057
293.15 K | 792.1 ± 0.9 | 0.599 ± 0.0054
298.15 K | 787.9 ± 0.8 | 0.5585 ± 0.005
303.15 K | 783.7 ± 0.8 | 0.5199 ± 0.0047
308.15 K | 779.5 ± 0.9 | 0.4857 ± 0.0044
313.15 K | 775.2 ± 0.9 | 0.4559 ± 0.0042
